Assay results published in PubChem BioAssay AID330 (DTP/NCI, 2004).
Several values for one entry are separate records, joined by “and”; a condition that tells them apart may be missing. Equal values may be shown once. Inconclusive results and toxic doses are left out. Rule for the calls: active = survival T/C of 150% or more; inactive = T/C below 125% in these data.

Test system: P388 leukemia ip, CD2F1 mice, survival T/C
Assay: NCI In Vivo Anticancer Drug Screen. Data for tumor model P388 Leukemia (intraperitoneal) in CD2F1 (CDF1) mice
Conditions: endpoint: median survival time, higher = longer survival
How it was run: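 Mice carrying the transplanted tumor received test compound or vehicle. Survival was recorded in each group, and the value is the treated-group measurement divided by that of the vehicle-treated control group.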

[1] = dose: 60.0 mg/kg/injection, schedule: Q01DX005 (ip), vehicle: saline with Tween-80
[2] = dose: 120.0 mg/kg/injection, schedule: Q01DX005 (ip), vehicle: saline with Tween-80
[3] = dose: 240.0 mg/kg/injection, schedule: Q01DX005 (ip), vehicle: saline with Tween-80
[4] = dose: 50.0 mg/kg/injection, schedule: Q01DX009 (ip), vehicle: saline with Tween-80
[5] = dose: 100.0 mg/kg/injection, schedule: Q01DX009 (ip), vehicle: saline with Tween-80
[6] = dose: 200.0 mg/kg/injection, schedule: Q01DX009 (ip), vehicle: saline with Tween-80
[7] = dose: 100.0 mg/kg/injection, schedule: Q04DX003 (ip), vehicle: Klucel (hydroxypropylcellulose) (HPC)
[8] = dose: 200.0 mg/kg/injection, schedule: Q04DX003 (ip), vehicle: Klucel (hydroxypropylcellulose) (HPC)

Measured: T/C

C=Cc1c(Cl)nc(C)c(C)c1-c1ccc(OC)c(OC)c1OCc1ccccc1
inactive: dose: 50.0 mg/kg/injection, schedule: Q01DX005 (ip), vehicle: Klucel (hydroxypropylcellulose) (HPC) 92 % of control | dose: 100.0 mg/kg/injection, schedule: Q01DX005 (ip), vehicle: Klucel (hydroxypropylcellulose) (HPC) 104 % of control | dose: 200.0 mg/kg/injection, schedule: Q01DX005 (ip), vehicle: Klucel (hydroxypropylcellulose) (HPC) 91 % of control

CCOC(=O)Nc1cc(Cl)c2ncn(C(=O)OCC)c2n1
inactive: dose: 50.0 mg/kg/injection, schedule: Q01DX009 (ip), vehicle: Klucel (hydroxypropylcellulose) (HPC) 96 % of control | dose: 100.0 mg/kg/injection, schedule: Q01DX009 (ip), vehicle: Klucel (hydroxypropylcellulose) (HPC) 90 % of control | dose: 200.0 mg/kg/injection, schedule: Q01DX009 (ip), vehicle: Klucel (hydroxypropylcellulose) (HPC) 93 % of control

N#CC(c1ccccc1)c1nccc2ccccc12 (stereo unspecified)
inactive: dose: 100.0 mg/kg/injection, schedule: Q04DX002 (ip), vehicle: saline with Tween-80 99 % of control | dose: 200.0 mg/kg/injection, schedule: Q04DX002 (ip), vehicle: saline with Tween-80 100 % of control

N#Cc1ccc(NN=NCCCCCl)cc1
inactive: dose: 3.12 mg/kg/injection, schedule: Q01DX005 (ip), vehicle: distilled water + Tween-80 94 % of control | dose: 6.25 mg/kg/injection, schedule: Q01DX005 (ip), vehicle: distilled water + Tween-80 88 % of control | dose: 12.5 mg/kg/injection, schedule: Q01DX005 (ip), vehicle: distilled water + Tween-80 91 % of control | dose: 25.0 mg/kg/injection, schedule: Q01DX005 (ip), vehicle: distilled water + Tween-80 94 % of control | dose: 50.0 mg/kg/injection, schedule: Q01DX005 (ip), vehicle: distilled water + Tween-80 105 % of control

Cc1ccc2c(c1)C1(SCC(=O)N1c1ccc(Cl)cc1)C(=O)N2 (stereo unspecified)
inactive: [1] 101 % of control | [2] 100 % of control | [3] 100 % of control

O=C1OC(c2ccc(F)cc2)CC1CN1CCOCC1 (stereo unspecified)
inactive: [1] 105 % of control | [2] 105 % of control | [3] 99 % of control

O=c1[nH]c2c(ccc3c[n+]([O-])ccc32)c2c1CCC2
inactive: [4] 88 % of control | [5] 100 % of control | [6] 108 % of control

CC1(C)OC(C(CCl)OS(C)(=O)=O)C(C(CCl)OS(C)(=O)=O)O1 (stereo unspecified)
inactive: dose: 50.0 mg/kg/injection, schedule: Q04DX003 (ip), vehicle: Klucel (hydroxypropylcellulose) (HPC) 92 % of control | [7] 100 % of control | [8] 100 % of control

CCOP(O)(=S)OCC
inactive: dose: 12.5 mg/kg/injection, schedule: Q01DX001 (ip), vehicle: saline 94 % of control | dose: 25.0 mg/kg/injection, schedule: Q01DX001 (ip), vehicle: saline 100 % of control | dose: 100.0 mg/kg/injection, schedule: Q01DX001 (ip), vehicle: Klucel (hydroxypropylcellulose) (HPC) 89 % of control | dose: 100.0 mg/kg/injection, schedule: Q01DX001 (ip), vehicle: saline 103 % of control | [7] 92 % of control | dose: 100.0 mg/kg/injection, schedule: Q04DX003 (ip), vehicle: saline 88 % of control | dose: 200.0 mg/kg/injection, schedule: Q01DX001 (ip), vehicle: Klucel (hydroxypropylcellulose) (HPC) 108 % of control | dose: 200.0 mg/kg/injection, schedule: Q01DX001 (ip), vehicle: saline 98 % of control and 106 % of control | [8] 89 % of control | dose: 200.0 mg/kg/injection, schedule: Q04DX003 (ip), vehicle: saline 90 % of control | dose: 400.0 mg/kg/injection, schedule: Q01DX001 (ip), vehicle: Klucel (hydroxypropylcellulose) (HPC) 92 % of control | dose: 400.0 mg/kg/injection, schedule: Q01DX001 (ip), vehicle: saline 108 % of control and 106 % of control | dose: 400.0 mg/kg/injection, schedule: Q04DX003 (ip), vehicle: Klucel (hydroxypropylcellulose) (HPC) 90 % of control | dose: 400.0 mg/kg/injection, schedule: Q04DX003 (ip), vehicle: saline 101 % of control

COc1ccc(-n2c3c(c4c(N)ncnc42)CCCC3)cc1
inactive: [1] 105 % of control | [2] 93 % of control

O=C1Nc2ccccc2/C1=N/N1C(=O)CSC1=S
inactive: dose: 0.93 mg/kg/injection, schedule: Q01DX005 (ip), vehicle: Klucel (hydroxypropylcellulose) (HPC) 97 % of control | dose: 1.87 mg/kg/injection, schedule: Q01DX005 (ip), vehicle: Klucel (hydroxypropylcellulose) (HPC) 94 % of control | dose: 3.75 mg/kg/injection, schedule: Q01DX005 (ip), vehicle: Klucel (hydroxypropylcellulose) (HPC) 88 % of control

CC(=O)CC1C=CCC(CC(O)c2ccccc2)N1C (stereo unspecified)
inactive: dose: 12.5 mg/kg/injection, schedule: Q01DX005 (ip), vehicle: saline 100 % of control | dose: 25.0 mg/kg/injection, schedule: Q01DX005 (ip), vehicle: saline 105 % of control | dose: 50.0 mg/kg/injection, schedule: Q01DX005 (ip), vehicle: saline 105 % of control

O=c1[nH]c2cc(Cl)ccc2nc1/C=C(\O)c1cccc(O)c1
inactive: dose: 15.0 mg/kg/injection, schedule: Q01DX005 (ip), vehicle: Klucel + Tween-80 106 % of control | dose: 30.0 mg/kg/injection, schedule: Q01DX005 (ip), vehicle: Klucel + Tween-80 94 % of control | dose: 60.0 mg/kg/injection, schedule: Q01DX005 (ip), vehicle: Klucel + Tween-80 101 % of control and 88 % of control

CN(C)S(=O)(=O)Nc1ccccn1
inactive: [4] 106 % of control | [5] 92 % of control | [6] 86 % of control

N#CC(=O)Nc1ccc(Cl)cc1
inactive: dose: 3.75 mg/kg/injection, schedule: Q01DX005 (ip), vehicle: saline with Tween-80 103 % of control | dose: 7.5 mg/kg/injection, schedule: Q01DX005 (ip), vehicle: saline with Tween-80 111 % of control | dose: 15.0 mg/kg/injection, schedule: Q01DX005 (ip), vehicle: saline with Tween-80 109 % of control
